{"source": "patent US20170049822A1", "about": "“METHODS OF ENHANCING STEM CELL ENGRAFTMENT” (TEXAS HEART INSTITUTE, priority 2014, published 2017)", "key": {"ischemic hindlimbs [1]": {"system": "ischemic hindlimbs", "assay": "Laser Doppler perfusion of ischemic hindlimbs with local CPGI2 delivery by osmotic pump", "format": "in vivo, mice", "conditions": "local delivery to ischemic thigh muscle, n=5/group", "protocol": "Serial measurements of perfusion were performed with the use of a laser Doppler image device (Perimed AB, […]) at 24 hours and 3, 5, 7, and 14 days after cell injections in the cell-treated groups and at the same time points in iloprost-treated mice. Perfusion was expressed as the perfusion ratio in the ischemic compared to the contralateral, non-manipulated leg. The outcomes of local delivery of CPGI2, a prostacyclin analogue, to ischemic hindlimbs were investigated. More specifically, blood perfusion in ischemic hindlimbs was monitored in conjunction with CPGI2 treatment. An osmotic pump was implanted and a catheter was used to deliver the prostacyclin analogue CPGI2 or saline (vehicle) to the surface of the ischemic anterior thigh muscle for up to 14 days."}, "ischemic hindlimbs [2]": {"system": "ischemic hindlimbs", "assay": "Live microscopy / quantitative confocal analysis of arteriolar growth in ischemic hindlimbs", "format": "in vivo, mice", "conditions": "ischemic legs", "description": "The outcomes of local delivery of CPGI2, a prostacyclin analogue, to ischemic hindlimbs were investigated. More specifically, arteriolar growth in ischemic hindlimbs was monitored in conjunction with CPGI2 treatment. Dynamic changes in the microvascular morphology of the limb region distal to the ligation where CPGI2 was applied were microscopically examined in live mice. At 7 days after treatment, structural remodeling at the arteriolar level in the CPGI2 group was more distinct than in the saline group, as shown in FIG. 3. […] More intra-arteriolar connections (solid line arrows, as shown in FIG. 3) and corkscrew extensions of arterioles (dashed line arrows, as shown in FIG. 3) developed in CPGI2-treated versus saline-treated groups. Arteriolar networks were identified by their branching out from a large feeder femoral artery or from a saphenous branch of descending genicular artery."}, "ischemic hindlimbs [3]": {"system": "ischemic hindlimbs", "assay": "Quantitative micro-CT of microvascular network in ischemic hindlimbs", "format": "in vivo, mice", "description": "The outcomes of local delivery of CPGI2, a prostacyclin analogue, to ischemic hindlimbs were investigated. More specifically, remodeling of microvascular network in ischemic hindlimbs was monitored in conjunction with CPGI2 treatment. High-definition, volumetric, quantitative micro-CT was used to assess the overall microvascular geometry of ischemic and contralateral non-ischemic legs 14 days after femoral occlusion and constant local administration of CPGI2 or saline. […] Similar global morphometric analyses were used to evaluate contralateral non-ischemic legs. […] To further verify the pro-arteriogenic effect of CPGI2, a quantitative histogram was generated by using micro-CT to illustrate frequency and distribution of blood vessel size in CPGI2-treated legs in comparison to saline-treated or contralateral non-ischemic legs. […] Referring to FIG. 4B, the red dashed circles show more vasculature in the thigh muscle where CPGI2 was administered as compared to the similar area where saline was administered. […] CPGI2 treatment positively affects remodeling of the microvascular network in ischemic hindlimbs. Quantitative micro-CT analyses indicate CPGI2 augments vascular growth."}, "[4]": {"conditions": "in vivo; cited from earlier work"}, "[5]": {"system": "hMSCs in ischemic hindlimbs of NOD/SCID mice", "assay": "In vivo bioluminescence imaging of hMSC retention with daily SEE drug treatment", "conditions": "3 days, hMSCs preconditioned 100 nM 4 days", "protocol": "The ability of stem cells to engraft in ischemic tissues in the presence of SEE was investigated. More specifically, the ability of hMSCs to engraft in ischemic hindlimbs in the presence of different SEEs was investigated. The studies were conducted in as described in Example 5, unless otherwise specified. To investigate the signaling pathways involved in prostacyclin-induced cell retention after hindlimb ischemia, hMSCs were preconditioned with either prostacyclin receptor agonist Cicaprost (100 nM) or PPARβ/δ agonist GW501516 (100 nM) for 4 days in vitro. Cells were then injected into the gastrocnemius of ischemic hindlimbs of NOD/SCID mice. After cell injection, mice were either treated daily with Cicaprost (oral gavage, LD=0.3 mg/kg/day; HD=1 mg/kg/day) or GW501516 (intra peritoneal (IP), 5 mg/kg/day). LD=low dose and HD=high dose. In vivo BLI was performed on cell-drug treated mice."}}}
{"smiles": "CCCCC[C@H](O)/C=C/[C@@H]1[C@H]2C/C(=C/CCCC(=O)O)C[C@H]2C[C@H]1O", "note": "[CPGI2, Carbaprostacyclin]", "values": [{"measurement": "blood flow recovery", "setting": "ischemic hindlimbs [1]; 7 days, perfusion ischemic vs contralateral leg", "result": "58.80±5.74", "unit": "%"}, {"measurement": "blood flow recovery", "setting": "ischemic hindlimbs [1]; 14 days", "result": "88.40±8.71", "unit": "%"}, {"measurement": "structural remodeling at the arteriolar level versus saline group", "setting": "ischemic hindlimbs [2]; 7 days after treatment", "result": "more distinct"}, {"measurement": "number of microvessels ranging in size from 15-50 m in diameter", "setting": "ischemic hindlimbs [2]; quantitative confocal analysis", "result": "38.00±2.41 /high-power field [HPF]"}, {"measurement": "distance between vessels", "setting": "ischemic hindlimbs [3]; ischemic legs, 14 days", "result": "6.60±0.52", "unit": "mm"}, {"measurement": "vascular volume", "setting": "ischemic hindlimbs [3]; ischemic legs, 14 days after femoral occlusion, constant local administration", "result": "41.28±2.22", "unit": "mm^3"}, {"measurement": "small vessels, vessel diameter bins 40-60 μm, relative to saline-treated ischemic legs", "setting": "ischemic hindlimbs [3]; micro-CT histogram, ischemic legs", "result": "significant increase"}, {"measurement": "morphologic variables of contralateral non-ischemic legs versus saline-treated", "setting": "ischemic hindlimbs [3]; non-ischemic legs, 14 days", "result": "No significant differences"}]}
{"smiles": "CCCCC[C@H](O)/C=C/[C@@H]1[C@H]2C/C(=C/CCCC(=O)O)O[C@H]2C[C@H]1O", "note": "[PGI2, prostacyclin]", "values": [{"measurement": "circulating half-life", "setting": "[4]", "result": "1 to 2", "unit": "min"}]}
{"smiles": "CCC#CC[C@H](C)[C@H](O)C#C[C@@H]1[C@H]2C/C(=C/COCC(=O)O)C[C@H]2C[C@H]1O", "note": "[Cicaprost]", "values": [{"measurement": "bioluminescent intensity (hMSC retention) versus no drug treatment", "setting": "[5]; oral gavage daily 0.3 or 1 mg/kg/day", "result": "markedly higher"}]}
{"smiles": "Cc1cc(SCc2sc(-c3ccc(C(F)(F)F)cc3)nc2C)ccc1OCC(=O)O", "note": "[GW501516]", "values": [{"measurement": "bioluminescent intensity (hMSC retention) versus no drug treatment", "setting": "[5]; intra peritoneal 5 mg/kg/day", "result": "markedly higher"}]}
